Patent US20260157984A1, “CERAMIDE COMPOSITION” (GENUINE R&D CO., LTD., priority 2021, published 2026)

Test system: HaCaT cells
Assay: Measurement of mitochondrial activity by IN Cell Analyzer 2200 in HaCaT cells
Assay type: cell-based, human
Conditions: HaCaT cells treated with ceramides 48 hours, 5 μM, FIG. 1
Protocol: A human epidermal keratinocyte cell line, i.e., HaCaT cells, was used as a human skin cell model. The cells were subcultured in a cell culture dish (Greiner Bio-One Co., Ltd., Tokyo, Japan) at 37° C. in the presence of 5% CO2 by using DMEM medium (Dulbecco's Modified Eagle Medium, Nissui, Tokyo, Japan) containing 10% inactivated fetal bovine serum (FBS, Life Technologies Corporation, CA, USA). […]
HaCaT cells were seeded in a 96-well plate at a density of 6.0×10^4 cells/mL and precultured for 24 hours. […] Thereafter, the diluted Hoechst […] solution was removed from the 96-well plate, […] of PBS was added, and the fluorescence was detected using an IN Cell Analyzer 2200 (GE Healthcare). By measuring the amounts of fluorescence of MitoTracker Red, MitoTracker Green, and Hoechst 33342, the mitochondrial activity, number, and area in the cells were examined. The images were analyzed using IN Cell Investigator High-content image analysis software (GE Healthcare).
The mitochondrial number and area (MitoTracker Green), as well as the mitochondrial membrane potential activity (MitoTracker Red), per cell were measured using an IN Cell Analyzer 2200 in HaCaT cells treated with ceramides for 48 hours.

## CCCCCCCCCCCCCCCCCC(=O)N[C@@H](CO)[C@H](O)CCCCCCCCCCCCCCC [synthetic ceramide, ceramide NG]
  mitochondrial number per cell (MitoTracker Green): significantly increased
